Among the data in BindingDB's records for doi:10.1016/j.bmcl.2018.06.027 (Chinese Academy of Science, 2018) are EC50 values, retold here.

This test in a line: Inhibition of HIV1 3B protease infected in human MT4 cells assessed as protection from virus induced cytopathogenicity measured after 5 days post infection by MTT assay. Background: Protection from cytopathic effect is a common read-out in antiviral testing.

For `CC(C)[C@H](NC(=O)N(C)Cc1c[se]c(-c2ccccc2)n1)C(=O)N[C@@H](Cc1ccccc1)C[C@H](O)[C@H](Cc1ccccc1)NC(=O)OCc1cncs1`, the EC50 came out at 170 nM.
In the case of `CC(C)c1nc(CN(C)C(=O)N[C@H](C(=O)N[C@@H](Cc2ccccc2)C[C@H](O)[C@H](Cc2ccccc2)NC(=O)OCc2cncs2)C(C)C)c[se]1` it was 550 nM.

By EC50 is commonly meant the concentration at which the effect is half-maximal.
